Results: paper PMC6208284 (Phytotherapy Research, 2018)
Read-outs that look alike come from different tables or passages of the source.

Columns and labels:
[1] = test system: Leishmania tarentolae promastigotes (LtP); experiment: Superoxide radical detection in LtP by CMH/ESR; format: cell-based; details: for CM● formation (superoxide radicals) in LtP: 100 μM compound, immediate, with DFO and DTPA
Description: Detection of superoxide radicals was performed using CMH as reaction partner and measuring the formed stable nitroxyl radicals by electron spin resonance (ESR) spectroscopy. Measurements were performed in PBS (136 mM NaCl, 1.15 mM KH2PO4, 14 mM Na2HPO4, and 2.7 mM KCl, pH 7.4) containing 15 mM glucose, 400 μM CMH, and 100 μM DFO (desferrioxamine mesylate) and 25 μM DTPA. Usually, these assays are performed in the presence of iron chelators (DFO and DTPA) to prevent CMH interaction with free Fe^3+ leading to CM^● unrelated to superoxide radicals. Before the measurements, LtP suspensions were washed twice with PBS to remove the medium. Typical experiments contained 5 × 10^8 LtP cells/ml. Stock solutions of EO compounds dissolved in DMSO were added. The influence of Asc (6–700 μM) on the CMH oxidation rate by LtP was assessed immediately and after prolonged incubation time (1 hr between Asc and CMH addition). The influence of iron‐dependent Asc activation in LtP on CMH oxidation was studied in the absence of iron chelators DFO and DTPA. Prior to the ESR measurement, 400 μM CMH was added. Afterwards, 17 μl of suspension was aspirated in gas‐permeable Teflon tubes (ID 0.7 mm). This capillary tube was placed in the resonator of the ESR instrument (Bruker EMX, split ring MD5, Germany), and 10 sequential measurements were performed. The following instrument settings were used: microwave frequency 9.682 GHz, modulation frequency 100 kHz, modulation amplitude 1 G, time constant 0.082 s, center field 3,446 G, scan rate 71 G/min, sweep width 100 G, scan time 84 s, and attenuation CMH: 7.96 × 10^3. From the ESR spectra, the middle peak intensity was retrieved, and concentrations of oxidized CMH were obtained by comparison with a standard curve prepared from 3‐carboxy‐proxyl solutions with defined concentrations. Four replicate measurements were performed for each condition.

[2] = test system: Leishmania tarentolae promastigotes (LtP); experiment: Viability of LtP treated with EO main components (resazurin); format: cell-based
Description: LtP (200 μl, 2 × 10^6 parasites/ml) in YEM/phosphate‐buffered saline (PBS; 1:1 vol/vol, including antibiotics and 6 μM hemin) were distributed in 96‐well plates (nontreated plates). Compound stocks (in DMSO, max. 2% final concentration) were added, and five 1:3 serial dilutions were performed. Control rows with YEM/PBS (no activity) and with untreated LtP (vehicle, DMSO; 100% activity) were loaded, and the plate was incubated at 26 °C for 48 hr. Then resazurin (50 μl in PBS) was added (20 μM final concentration), and after 4 hr of incubation at 26 °C, the fluorescence of […] was measured at 560 nm excitation and 590 nm emission using a plate reader (PerkinElmer Enspire, Germany). Each compound was tested in triplicate.

[3] = biological target: T1, succinate:ubiquinone oxidoreductase (complex II), BH‐SMP (Bos taurus, UniProt P31039+P35720+Q3T189+Q95123); experiment: Succinate:ubiquinone oxidoreductase (complex II) activity in BH‐SMP, DCPIP; format: biochemical, bovine
T1 construct: from tissue; host or cells: bovine heart submitochondrial particles (BH-SMP)
T1 sequence (P31039 45-665 limits assumed): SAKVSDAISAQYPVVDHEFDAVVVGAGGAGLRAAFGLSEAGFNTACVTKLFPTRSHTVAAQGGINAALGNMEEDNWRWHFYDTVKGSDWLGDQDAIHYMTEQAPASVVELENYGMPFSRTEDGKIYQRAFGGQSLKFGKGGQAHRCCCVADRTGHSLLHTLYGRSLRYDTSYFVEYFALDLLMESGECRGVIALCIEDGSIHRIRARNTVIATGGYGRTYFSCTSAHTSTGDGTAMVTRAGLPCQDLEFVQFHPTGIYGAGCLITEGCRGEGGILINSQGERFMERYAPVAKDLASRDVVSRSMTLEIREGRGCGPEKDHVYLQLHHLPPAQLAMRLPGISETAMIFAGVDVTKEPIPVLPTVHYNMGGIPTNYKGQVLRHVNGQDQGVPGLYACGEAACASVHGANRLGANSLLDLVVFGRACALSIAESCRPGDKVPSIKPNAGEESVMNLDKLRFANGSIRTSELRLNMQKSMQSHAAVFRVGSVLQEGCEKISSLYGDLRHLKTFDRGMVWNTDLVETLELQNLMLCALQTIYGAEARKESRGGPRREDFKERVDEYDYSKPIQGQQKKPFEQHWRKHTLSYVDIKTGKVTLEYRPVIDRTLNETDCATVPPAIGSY
T1 sequence (Q3T189 29-280): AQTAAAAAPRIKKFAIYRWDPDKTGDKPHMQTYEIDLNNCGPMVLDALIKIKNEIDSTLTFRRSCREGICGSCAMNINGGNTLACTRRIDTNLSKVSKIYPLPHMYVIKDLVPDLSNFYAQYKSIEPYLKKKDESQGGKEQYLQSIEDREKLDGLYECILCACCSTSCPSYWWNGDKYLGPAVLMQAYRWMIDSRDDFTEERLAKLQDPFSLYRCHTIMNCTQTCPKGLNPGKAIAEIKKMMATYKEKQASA
T1 sequence (P35720 30-169): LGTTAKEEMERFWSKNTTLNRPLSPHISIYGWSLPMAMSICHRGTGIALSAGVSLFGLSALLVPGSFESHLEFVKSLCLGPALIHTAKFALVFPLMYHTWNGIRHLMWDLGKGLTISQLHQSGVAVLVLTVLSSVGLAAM
T1 sequence (Q95123 56-158): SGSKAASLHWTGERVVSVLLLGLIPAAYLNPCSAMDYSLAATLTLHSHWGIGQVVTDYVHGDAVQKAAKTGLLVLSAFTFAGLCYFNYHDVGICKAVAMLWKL
Description: (§1) NADH:ubiquinone oxidoreductase (complex I) and succinate:ubiquinone oxidoreductase (complex II) activities were determined in 96 well‐plates using DCPIP as the electron acceptor. In each well, 200 μl of premix containing buffer (250 mM sucrose, 20 mM triethanolamine, and 1 mM EDTA, pH 7.4), DCPIP (60 μM), BSA (3.5 mg/ml for complex I and 1 mg/ml for complex II), idebenone (50 μM), and LtP‐Mit (complex I 0.17 μg/ml protein and complex II: 51 μg/ml protein) or BH‐SMP (complexes I and II: 8 μg/ml protein) were added. In addition, in the first wells, 97 μl of premix and 3 μl of EO compounds were added. Then six serial 1:3 dilutions were carried out transferring 100 μl in each step. The reaction was started by adding 50 μl of start‐mix per well, giving final concentrations of KCN (1 mM), for complex I:NADH (300 μM) or complex II:succinate (4 mM). After start of the reaction, images of the plates were recorded with a Canon EOS 300D camera (PLReader software, red–green channel) each 10 min for LtP‐Mit and 3 min for BH‐SMP (20 absorbance measurements). For each EO compound, percentage of inhibition was obtained with respect to controls (set to 100%) treated with maximum volume of vehicle (DMSO) introduced by test compound stocks.

[4] = biological target: NADH:ubiquinone oxidoreductase (complex I), BH‐SMP (Bos taurus, UniProt P03887+P17694+P42026); format: biochemical, bovine; details: for IC50: read-out: IC50 Complex I BH‐SMP
Description: as §1

[5] = test system: Leishmania tarentolae promastigotes (LtP); experiment: Immediate mitochondrial uncoupling in LtP, OxoPlates with oligomycin; format: cell-based; details: LtP + 5 μM Oligo, OxoPlates
Description: U‐shaped 96‐well OxoPlates (OP96U PreSens, Germany) with integrated fluorescence oxygen sensors were used for parallel LtP experiments. Oxygen concentrations were measured using a PerkinElmer Enspire fluorescence plate reader using excitation wavelength 540 nm and two emission wavelengths (reference dye 590 nm, IRef, and O2‐sensing dye 650 nm, IInd). The oxygen concentration (μM O2) was calculated according to manufacturer's instructions as described previously (Monzote et al., 2016). Measurements with LtP were performed in air‐saturated BHI medium. […] Immediately before the measurement, 150 μl of well‐aerated cell suspensions (13 × 10^7 LtP per ml) was added to the respective wells. Finally, on the top of each well, 50 μl of paraffin oil was layered. Two minutes after mixing, the fluorescence measurements at 27 °C were started, and eight measurements at 5‐min intervals were performed. From the linear part of the O2 decay, the slopes were calculated and corrected for the medium drift for further statistic evaluation. All measurements were performed at least in triplicate. For bioenergetic characterization, the ATP synthase inhibitor Oligo (5 μM) and as positive control CCCP (0.7–5 μM) were used. Respiratory control ratio (RCR) was calculated from respiration rate in the presence of Oligo and compounds/uncoupler divided by the rate in the presence of Oligo.

[6] = biological target: NADH:ubiquinone oxidoreductase (complex I), LtP‐Mit (Leishmania tarentolae, UniProt A0A640KJ43+P15576+Q34939); experiment: NADH:ubiquinone oxidoreductase (complex I) activity in LtP‐Mit, DCPIP; format: biochemical; details: for IC50: read-out: IC50 Complex I LtP‐Mit
Chain of NADH:ubiquinone oxidoreductase (complex I), LtP‐Mit (Q7M3U1 entry or part of it): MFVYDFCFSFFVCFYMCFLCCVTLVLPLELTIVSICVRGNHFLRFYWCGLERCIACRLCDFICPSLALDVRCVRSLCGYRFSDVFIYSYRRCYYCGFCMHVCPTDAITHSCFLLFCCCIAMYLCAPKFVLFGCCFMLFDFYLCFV
Chain of NADH:ubiquinone oxidoreductase (complex I), LtP‐Mit (P15576 whole entry): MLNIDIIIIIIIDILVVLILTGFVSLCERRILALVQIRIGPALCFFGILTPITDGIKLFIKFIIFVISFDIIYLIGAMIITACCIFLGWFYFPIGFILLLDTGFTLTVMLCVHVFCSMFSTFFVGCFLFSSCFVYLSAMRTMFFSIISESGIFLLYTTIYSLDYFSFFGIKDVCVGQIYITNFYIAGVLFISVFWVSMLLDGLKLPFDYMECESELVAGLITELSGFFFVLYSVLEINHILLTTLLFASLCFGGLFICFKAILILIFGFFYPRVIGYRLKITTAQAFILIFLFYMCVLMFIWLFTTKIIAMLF
Chain of NADH:ubiquinone oxidoreductase (complex I), LtP‐Mit (A0A640K8W3 entry or part of it, further chain): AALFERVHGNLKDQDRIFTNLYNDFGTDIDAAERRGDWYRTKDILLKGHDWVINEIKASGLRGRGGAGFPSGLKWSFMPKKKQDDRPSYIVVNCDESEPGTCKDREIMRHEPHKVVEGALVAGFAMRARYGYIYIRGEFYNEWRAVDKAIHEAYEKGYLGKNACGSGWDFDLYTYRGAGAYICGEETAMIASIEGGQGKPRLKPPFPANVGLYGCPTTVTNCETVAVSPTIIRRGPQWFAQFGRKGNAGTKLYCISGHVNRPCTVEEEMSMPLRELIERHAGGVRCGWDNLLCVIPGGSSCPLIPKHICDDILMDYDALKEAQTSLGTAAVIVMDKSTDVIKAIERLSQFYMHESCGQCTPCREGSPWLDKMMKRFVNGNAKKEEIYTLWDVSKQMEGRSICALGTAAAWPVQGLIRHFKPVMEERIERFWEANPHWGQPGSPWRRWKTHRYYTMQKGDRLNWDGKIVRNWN
Chain of NADH:ubiquinone oxidoreductase (complex I), LtP‐Mit (P15583 whole entry, further chain): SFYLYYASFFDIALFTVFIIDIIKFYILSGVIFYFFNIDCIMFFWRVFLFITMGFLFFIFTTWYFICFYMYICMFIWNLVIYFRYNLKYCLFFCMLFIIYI
Chain of NADH:ubiquinone oxidoreductase (complex I), LtP‐Mit (Q34939 entry or part of it): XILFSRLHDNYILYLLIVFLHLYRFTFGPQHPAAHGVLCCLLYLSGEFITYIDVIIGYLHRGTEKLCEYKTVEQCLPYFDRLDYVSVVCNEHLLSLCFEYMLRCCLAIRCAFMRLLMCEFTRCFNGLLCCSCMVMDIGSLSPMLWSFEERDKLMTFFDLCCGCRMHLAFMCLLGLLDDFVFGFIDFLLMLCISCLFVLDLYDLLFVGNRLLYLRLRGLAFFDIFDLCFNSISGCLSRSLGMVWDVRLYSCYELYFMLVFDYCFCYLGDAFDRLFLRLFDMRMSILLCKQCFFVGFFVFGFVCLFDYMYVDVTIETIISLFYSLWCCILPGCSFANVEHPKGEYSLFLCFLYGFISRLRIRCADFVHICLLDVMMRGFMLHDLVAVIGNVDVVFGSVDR
Chain of NADH:ubiquinone oxidoreductase (complex I), LtP‐Mit (A0A640KJ43 entry or part of it): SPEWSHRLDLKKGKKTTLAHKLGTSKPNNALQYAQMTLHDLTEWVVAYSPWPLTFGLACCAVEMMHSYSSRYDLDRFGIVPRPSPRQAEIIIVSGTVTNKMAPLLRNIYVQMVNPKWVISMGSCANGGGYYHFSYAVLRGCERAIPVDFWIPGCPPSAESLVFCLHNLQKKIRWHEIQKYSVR
Description: as §1

[7] = set-up: method as in Rappoport & Frankel, 1967; details: ref Rappoport & Frankel, 1967; cited from earlier work
[8] = 48 hr at 26 °C, resazurin, n = 3, read-out: IC50, viability of LtP
[9] = read-out: IC50 Complex II BH‐SMP

Row | SMILES | CM● formation (superoxide radicals) in LtP [1] | IC50 [2, 8] [µM] | % of inhibition at highest concentration tested, Complex II BH‐SMP [3] [%] | IC50 [3, 9] [µM] | % of inhibition at highest concentration tested, Complex I BH‐SMP [4] [%] | IC50 [4] [µM] | Oxygen consumption on top of the inhibition by Oligo ([5]; highest concentration 200 μM) | % of inhibition at highest concentration tested, Complex I LtP‐Mit [6] [%] | IC50 [6] [µM] | pKa value [7] | Immediate uncoupling effect (stimulation of Oligo-inhibited oxygen consumption) [5] | CMH oxidation (superoxide radical formation) triggered in LtP ([1]; Asc 6–700 μM, 0 hr vs 1 hr incubation, with/without iron chelators) | IC50 ([2]; 48 h, read-out: IC50, viability of LtP) [µM] | IC50 [3] [µM]
1 | C=C1CC[C@H]2O[C@]2(C)CC[C@@H]2[C@@H]1CC2(C)C [Caryo, caryophyllene oxide] | only slightly increased | 36 ± 17.6 | 16.3 | > 100 | 39.7 | > 100 | totally inhibited the oxygen consumption | 7.2 | > 100 | – | – | – | – | –
2 | Cc1ccc(C(C)C)cc1O [Car, carvacrol] | – | 11.6 ± 3.4 | 21.5 | > 100 | 13.3 | > 100 | – | 16.4 | > 100 | around 10 | Neither Car nor Asc (Figure 6a,b) showed an uncoupling effect | – | – | –
3 | CC(C)C12C=CC(C)(CC1)OO2 (stereo not shown) [Asc, ascaridole] | only slightly increased | – | 21.2 | – | 5.1 | > 100 | – | 1.1 | > 100 | – | Neither Car nor Asc (Figure 6a,b) showed an uncoupling effect | increasingly effective upon prolonged incubation and in the absence of iron chelators | 24.5 ± 3 | > 100
